Source: ChEMBL document CHEMBL1139791, “Highly efficient antitumor agents of heterocycles containing sulfur atom: linear and angular thiazonaphthalimides against human lung cancer cell in vitro” (Bioorg Med Chem, 2007)

Columns and labels:
[1] = tested on: A549; experiment: Cytotoxicity against human A549 cells after 72 hrs by sulforhodamine B dye assay; type: functional, cell-based; settings: A549, 72 h
[2] = tested on: P388; experiment: Cytotoxicity against mouse P388 cells after 48 hrs by tetrazolium-formazan method; type: functional, cell-based; settings: P388, 48 h

SMILES | IC50 [1] | IC50 [2]
CN(C)CCN1C(=O)c2cccc3c2c(cc2nc(N)sc23)C1=O | 500 nM | 1030 nM
CN(C)CCN1C(=O)c2cccc3cc4nc(N)sc4c(c23)C1=O | 0.8 nM | 5 nM
CN(C)CCN1C(=O)c2cccc3cc4nc(Cl)sc4c(c23)C1=O | 88 nM | 18.5 nM
CN(C)CCN1C(=O)c2cccc3cc4ncsc4c(c23)C1=O | 39.8 nM | 83.9 nM
CN(C)CCN1C(=O)c2cccc3cc4nc(O)sc4c(c23)C1=O | 45 nM | 52.5 nM
CN(C)CCCN1C(=O)c2cccc3c2c(cc2nc(N)sc23)C1=O | 772 nM | 1230 nM
CN(C)CCCN1C(=O)c2cccc3cc4nc(N)sc4c(c23)C1=O | 21.8 nM | 294 nM
CN(C)CCNc1nc2cc3cccc4c3c(c2s1)C(=O)N(CCN(C)C)C4=O | 30.6 nM | 8.31 nM
